In PubChem BioAssay AID272 (DTP/NCI, 2004):
Where “and” joins values, the source holds several entries; their conditions need not be identical. Equal entries are not always repeated. Results filed as inconclusive are left out.

Test system: Lewis lung carcinoma i.m., BDF1 mice, T/C %
Test: NCI In Vivo Anticancer Drug Screen. Data for tumor model Lewis Lung Carcinoma (intramuscular) in B6D2F1 (BDF1) mice
Method in brief: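 Value is the ratio of a treated-group measurement (T) to the matching vehicle-control measurement (C), using either survival or tumour size in mice bearing transplanted tumours.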

CC(=O)C(O)N1C(=O)C=CC1=O (stereo unspecified)
T/C (endpoint: median survival time, dose: 0.62 mg/kg/injection, schedule: Q01DX011 (ip), vehicle: water, higher = longer survival): 88 % of control | T/C (endpoint: median survival time, dose: 1.25 mg/kg/injection, schedule: Q#A X022 (ip), vehicle: water, higher = longer survival): 120 % of control | T/C (endpoint: median survival time, dose: 2.5 mg/kg/injection, schedule: Q01DX011 (ip), vehicle: water, higher = longer survival): 123 % of control | T/C (endpoint: median survival time, dose: 2.5 mg/kg/injection, schedule: Q#A X022 (ip), vehicle: water, higher = longer survival): 120 % of control | T/C (endpoint: median survival time, dose: 5.0 mg/kg/injection, schedule: Q#A X022 (ip), vehicle: water, higher = longer survival): 113 % of control

CC[C@]1(O)C[C@H]2CN(CCc3c([nH]c4ccccc34)[C@@](C(=O)OC)(c3cc4c(cc3OC)N(C=O)[C@H]3[C@@](O)(C(=O)OC)[C@H](OC(C)=O)[C@]5(CC)C=CCN6CC[C@]43[C@@H]65)C2)C1
T/C (endpoint: mean tumor weight (est.), dose: 0.05 mg/kg/injection, schedule: Q01DX009 (ip), vehicle: water, higher = larger tumour): 57 % of control | T/C (endpoint: mean tumor weight (est.), dose: 0.08 mg/kg/injection, schedule: Q01DX009 (ip), vehicle: water, higher = larger tumour): 99 % of control | T/C (endpoint: mean tumor weight (est.), dose: 0.14 mg/kg/injection, schedule: Q01DX009 (ip), vehicle: water, higher = larger tumour): 69 % of control | T/C (endpoint: mean tumor weight (est.), dose: 0.23 mg/kg/injection, schedule: Q01DX009 (ip), vehicle: water, higher = larger tumour): 55 % of control | T/C (endpoint: mean tumor weight, dose: 0.12 mg/kg/injection, schedule: Q01DX011 (ip), vehicle: water, higher = larger tumour): 116 % of control | T/C (endpoint: mean tumor weight, dose: 0.14 mg/kg/injection, schedule: Q01DX009 (ip), vehicle: water, higher = larger tumour): 46 % of control | T/C (endpoint: mean tumor weight, dose: 0.23 mg/kg/injection, schedule: Q01DX009 (ip), vehicle: water, higher = larger tumour): 49 % of control | T/C (endpoint: mean tumor weight, dose: 0.25 mg/kg/injection, schedule: Q01DX011 (ip), vehicle: water, higher = larger tumour): 105 % of control | T/C (endpoint: median survival time, dose: 0.05 mg/kg/injection, schedule: Q01DX004 (ip), vehicle: water, higher = longer survival): 107 % of control | T/C (endpoint: median survival time, dose: 0.05 mg/kg/injection, schedule: Q09DX009 (ip), vehicle: water, higher = longer survival): 92 % of control | T/C (endpoint: median survival time, dose: 0.06 mg/kg/injection, schedule: Q01DX011 (ip), vehicle: water, higher = longer survival): 102 % of control and 104 % of control | T/C (endpoint: median survival time, dose: 0.08 mg/kg/injection, schedule: Q01DX004 (ip), vehicle: water, higher = longer survival): 110 % of control | T/C (endpoint: median survival time, dose: 0.08 mg/kg/injection, schedule: Q09DX009 (ip), vehicle: water, higher = longer survival): 113 % of control | T/C (endpoint: median survival time, dose: 0.12 mg/kg/injection, schedule: Q01DX011 (ip), vehicle: water, higher = longer survival): 92 % of control and 123 % of control | T/C (endpoint: median survival time, dose: 0.14 mg/kg/injection, schedule: Q01DX004 (ip), vehicle: water, higher = longer survival): 98 % of control | T/C (endpoint: median survival time, dose: 0.14 mg/kg/injection, schedule: Q01DX009 (ip), vehicle: none, higher = longer survival): 158 % of control | T/C (endpoint: median survival time, dose: 0.23 mg/kg/injection, schedule: Q01DX004 (ip), vehicle: water, higher = longer survival): 81 % of control | T/C (endpoint: median survival time, dose: 0.23 mg/kg/injection, schedule: Q01DX009 (ip), vehicle: none, higher = longer survival): 121 % of control | T/C (endpoint: median survival time, dose: 0.23 mg/kg/injection, schedule: Q01DX009 (ip), vehicle: water, higher = longer survival): 123 % of control | T/C (endpoint: median survival time, dose: 0.25 mg/kg/injection, schedule: Q01DX011 (ip), vehicle: water, higher = longer survival): 105 % of control | T/C (endpoint: median survival time, dose: 0.39 mg/kg/injection, schedule: Q01DX004 (ip), vehicle: water, higher = longer survival): 56 % of control | T/C (endpoint: median survival time, dose: 0.39 mg/kg/injection, schedule: Q01DX009 (ip), vehicle: none, higher = longer survival): 50 % of control | T/C (endpoint: median survival time, dose: 0.39 mg/kg/injection, schedule: Q09DX009 (ip), vehicle: water, higher = longer survival): 58 % of control | T/C (endpoint: median survival time, dose: 0.65 mg/kg/injection, schedule: Q01DX009 (ip), vehicle: none, higher = longer survival): 36 % of control

Cc1cc2c3ccc(C)[n+](C)c3ccc2n1C
T/C (endpoint: mean tumor weight (est.), dose: 0.6 mg/kg/injection, schedule: Q01DX011 (ip), vehicle: saline, higher = larger tumour): 81 % of control | T/C (endpoint: mean tumor weight (est.), dose: 1.25 mg/kg/injection, schedule: Q01DX011 (ip), vehicle: saline, higher = larger tumour): 59 % of control | T/C (endpoint: mean tumor weight (est.), dose: 2.5 mg/kg/injection, schedule: Q01DX011 (ip), vehicle: saline, higher = larger tumour): 110 % of control

CC/C(=C(/CC)c1ccc(O)cc1)c1ccc(O)cc1
T/C (endpoint: mean tumor weight, dose: 25.0 mg/kg/injection, schedule: Q01DX011 (ip), vehicle: steriod suspending solution, higher = larger tumour): 43 % of control | T/C (endpoint: mean tumor weight, dose: 50.0 mg/kg/injection, schedule: Q01DX011 (ip), vehicle: steriod suspending solution, higher = larger tumour): 29 % of control | T/C (endpoint: mean tumor weight, dose: 100.0 mg/kg/injection, schedule: Q01DX011 (ip), vehicle: steriod suspending solution, higher = larger tumour): 14 % of control and 34 % of control | T/C (endpoint: median survival time, dose: 25.0 mg/kg/injection, schedule: Q01DX011 (ip), vehicle: steriod suspending solution, higher = longer survival): 86 % of control | T/C (endpoint: median survival time, dose: 25.0 mg/kg/injection, schedule: Q01DX011 (ip), vehicle: water, higher = longer survival): 91 % of control and 97 % of control | T/C (endpoint: median survival time, dose: 50.0 mg/kg/injection, schedule: Q01DX011 (ip), vehicle: steriod suspending solution, higher = longer survival): 106 % of control | T/C (endpoint: median survival time, dose: 50.0 mg/kg/injection, schedule: Q01DX011 (ip), vehicle: water, higher = longer survival): 92 % of control | T/C (endpoint: median survival time, dose: 100.0 mg/kg/injection, schedule: Q01DX011 (ip), vehicle: steriod suspending solution, higher = longer survival): 104 % of control | T/C (endpoint: median survival time, dose: 100.0 mg/kg/injection, schedule: Q01DX011 (ip), vehicle: water, higher = longer survival): 97 % of control and 101 % of control
